Results published in US12304933B2, “Disease treatment drug based on mesenchymal-stem-cell mobilization” (StemRIM Inc., priority 2018, dated 2025).

Experiments:
psoriasis model mice = experiment: Auricular thickness in imiquimod-induced psoriasis model mice; format: in vivo, C57BL/6 mice; conditions: 5% imiquimod cream on auricular skin once a day for seven days; 5 mg/kg/day peptide into tail vein for seven days; n=4; FIG. 9
Experimental: To induce psoriasis by imiquimod, a cream containing 5% imiquimod (Beseruna cream 5%, Mochida Pharmaceutical Co., Ltd.) was used. In the drawing corresponding to the Example of the present application, imiquimod is referred to as IMQ. In addition, the peptide NP-3 (TFA salt) described in Example 1 was used as a test substance.
C57BL/6 mice (7 weeks old, female, body weight about 20 g) were prepared. To induce psoriasis, a cream containing 5% imiquimod was applied on the auricular skin of the mice at an amount of 25 mg/ear/day (1.25 mg/ear/day imiquimod) once a day for seven days. Moreover, mice without imiquimod application (hereinafter, referred to as “normal mice”) were used as a comparison target.
The psoriasis model mice prepared as described above were divided into a peptide-administered group (n=4) and a control group (n=4). […]
During the test period, the auricle thickness of mice was measured daily using a micrometer (manufactured by Mitutoyo Co., Ltd., Product No. CLM1-15QM), and the size of change from the auricle thickness before the start of imiquimod application (Day 0) was calculated. The degree of skin thickening was evaluated using the size of change as an index.

[1] = test system: mesenchymal stem cells in peripheral blood; experiment: Solid-phase culture of peripheral blood after administration of HMGB1 peptide 1-44 (earlier experiments of the inventors); format: in vivo
Description: In addition, the colonies obtained as a result of culturing, on a solid phase, peripheral blood after administration of a peptide consisting of amino acid residues 1-44 of the human HMGB1 protein (hereinafter, HMGB1 peptide 1-44), which has an activity of mobilizing mesenchymal stem cells into peripheral blood, have been confirmed to have adherability to solid phase and self-renewal ability, and to be PDGFRα positive. They have also been confirmed to have a gene expression profile characteristic to mesenchymal stem cells, based on the results of clustering the transcriptome analysis data and performing gene ontology analysis.
Furthermore, it has been confirmed that the number of colonies obtained by solid-phase culture is larger in the peripheral blood after administration of HMGB1 peptide 1-44 than in the peripheral blood after administration of physiological saline.

NP-3: Chemically synthesized fragment peptide of mouse YBX1 protein, positions 174-203, SEQ ID NO: 37 (SAPEGQAQQRRPYRRRRFPPYYMRRPYARR; listed as Mus musculus)
increase in auricular thickness as compared with the control group (psoriasis model mice): suppressed

HMGB1 peptide 1-44: peptide consisting of amino acid residues 1-44 of the human HMGB1 protein, which has an activity of mobilizing mesenchymal stem cells into peripheral blood (MGKGDPKKPRGKMSSYAFFVQTCREEHKKKHPDASVNFSEFSKK; UniProt P09429 1-44, looked up, fragment)
number of colonies obtained by solid-phase culture of peripheral blood, compared with peripheral blood after administration of physiological saline [1]: larger
